Laboratory results as given in patent publication US11400102B2, “Treatment for bacterial infections with salicylic acid analogs” (priority 2019, dated 2022).

Assays:
yersiniabactin [1] = experiment: 13C labeled salicylic acid incorporation into Ybt in culture; type: cell-based; conditions: FIG. 12 middle panel
yersiniabactin [2] = experiment: 13C labeled salicylic acid in infection model, labeled Ybt in mouse urine; type: in vivo; conditions: FIG. 12 right panel

Structure (SMILES): O=C(O)[13c]1[13cH][13cH][13cH][13cH][13c]1O [^13C labeled salicylic acid]
- incorporation of labeled compound into Ybt during culture (yersiniabactin [1]): incorporated
- labeled compound in mouse urine by mass spectrometry (yersiniabactin [2]): detectable
